Assay results reported in ChEMBL document CHEMBL4480396 (Eur J Med Chem, 2019).
Calls of active or inactive are those of the source. The calls are words filed in the database; no cut-off is given here.

Columns and labels:
[1] = system: PC-3; assay: Antiproliferative activity against human PC3 cells measured after 48 hrs by MTT assay; format: functional, cell-based; settings: PC-3, 48 h
[2] = system: MGC-803; assay: Antiproliferative activity against human MGC803 cells measured after 48 hrs by MTT assay; format: functional, cell-based; settings: MGC-803, 48 h
[3] = system: HepG2; assay: Antiproliferative activity against human HepG2 cells measured after 48 hrs by MTT assay; format: functional, cell-based; settings: HepG2, 48 h
[4] = system: MGC-803; assay: Antiproliferative activity against human MGC803 cells measured after 48 hrs by CCK8 assay; format: functional, cell-based; settings: MGC-803, 48 h
[5] = system: MGC-803; assay: Induction of apoptosis in human MGC803 cells after 48 hrs by Annexin V-FITC/propidium iodide staining based flow cytometry; format: functional, cell-based
[6] = system: MGC-803; assay: Inhibition of colony formation in human MGC803 cells after 7 days by crystal violet staining based assay; format: functional, cell-based
[7] = system: MGC-803; assay: Antiproliferative activity against human MGC803 cells assessed as cell viability at 30 nM measured after 7 days by crystal violet staining based assay relative to control; format: functional; settings: MGC-803, 168 h, read-out: Activity
[8] = system: MGC-803; assay: Antiproliferative activity against human MGC803 cells assessed as cell viability at 60 nM measured after 7 days by crystal violet staining based assay relative to control; format: functional; settings: MGC-803, 168 h, read-out: Activity
[9] = system: MGC-803; assay: Antiproliferative activity against human MGC803 cells assessed as cell viability at 90 nM measured after 7 days by crystal violet staining based assay relative to control; format: functional; settings: MGC-803, 168 h, read-out: Activity
[10] = system: MGC-803; assay: Antiproliferative activity against human MGC803 cells assessed as cell viability at 120 nM measured after 7 days by crystal violet staining based assay relative to control; format: functional; settings: MGC-803, 168 h, read-out: Activity
[11] = system: MGC-803; assay: Cell cycle arrest in human MGC803 cells assessed as decrease in accumulation at S-phase at 30 to 90 nM measured after 48 hrs by propidium iodide staining based flow cytometry; format: functional
[12] = system: MGC-803; assay: Cell cycle arrest in human MGC803 cells assessed as decrease in accumulation at G1-phase at 30 to 90 nM measured after 48 hrs by propidium iodide staining based flow cytometry; format: functional
[13] = system: MGC-803; assay: Cell cycle arrest in human MGC803 cells assessed as accumulation at G2/M-phase at 90 nM measured after 48 hrs by propidium iodide staining based flow cytometry relative to control; format: functional
[14] = system: MGC-803; assay: Cell cycle arrest in human MGC803 cells assessed as accumulation at G2/M-phase measured after 48 hrs by propidium iodide staining based flow cytometry; format: functional
[15] = system: MGC-803; assay: Down regulation of CDK1 expression in human MGC803 cells by Western blot analysis; format: functional, cell-based
[16] = target: Cyclin-dependent kinase 1 (Homo sapiens) (UniProt P06493); assay: Effect on CDK1 phosphorylation at Tyr15 residues in human MGC803 cells at 30 to 90 nM by Western blot analysis; format: cell-based
Cyclin-dependent kinase 1 (Homo sapiens), sequence (P06493 whole entry, looked up): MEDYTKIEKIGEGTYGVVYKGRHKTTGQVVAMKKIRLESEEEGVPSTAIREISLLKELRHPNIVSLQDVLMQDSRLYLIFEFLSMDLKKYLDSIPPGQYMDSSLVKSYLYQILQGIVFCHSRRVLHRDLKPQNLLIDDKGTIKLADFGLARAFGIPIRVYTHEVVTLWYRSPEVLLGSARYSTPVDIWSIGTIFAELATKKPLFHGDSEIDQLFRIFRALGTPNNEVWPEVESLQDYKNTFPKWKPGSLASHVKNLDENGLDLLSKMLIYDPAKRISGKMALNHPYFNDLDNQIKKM

[17] = system: MGC-803; assay: Up regulation of CDC25C expression in human MGC803 cells at 30 to 90 nM by Western blot analysis; format: functional, cell-based
[18] = system: MGC-803; assay: Down regulation of CDK1 expression in human MGC803 cells at 30 to 90 nM in presence of proteasome inhibitor MG132 by Western blot analysis; format: functional, cell-based
[19] = target: T1, Cyclin-dependent kinase 1/cyclin B1 (Homo sapiens) (UniProt P06493+P14635); assay: Effect on CDK1-cyclin B1 protein-protein interaction in human MGC803 cells assessed as change in cyclin B1 expression at 30 to 90 nM measured after 48 hrs by immunoprecipitation based Western blot analysis; format: cell-based
T1 sequence (P06493 whole entry, looked up): as above
T1 sequence (P14635 whole entry, looked up): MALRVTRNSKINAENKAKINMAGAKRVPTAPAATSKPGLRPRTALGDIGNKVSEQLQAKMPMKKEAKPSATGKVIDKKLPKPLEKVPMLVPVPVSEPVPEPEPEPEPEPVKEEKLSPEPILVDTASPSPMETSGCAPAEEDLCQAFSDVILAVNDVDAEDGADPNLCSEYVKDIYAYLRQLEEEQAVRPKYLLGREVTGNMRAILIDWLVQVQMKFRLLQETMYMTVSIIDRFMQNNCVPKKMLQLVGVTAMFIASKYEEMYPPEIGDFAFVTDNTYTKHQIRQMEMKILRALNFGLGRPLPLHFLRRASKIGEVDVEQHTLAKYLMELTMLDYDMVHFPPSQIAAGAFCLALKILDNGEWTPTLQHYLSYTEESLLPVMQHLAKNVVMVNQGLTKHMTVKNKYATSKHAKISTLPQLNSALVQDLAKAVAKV

[20] = target: T1, Cyclin-dependent kinase 1/cyclin B1 (Homo sapiens); assay: Effect on CDK1-cyclin B1 protein-protein interaction in human MGC803 cells assessed as change in CDK1 expression at 30 to 90 nM measured after 48 hrs by immunoprecipitation based Western blot analysis; format: cell-based
[21] = system: MGC-803; assay: Induction of apoptosis in human MGC803 cells assessed as viable cells at 30 nM after 48 hrs by Annexin V-FITC/propidium iodide staining based flow cytometry (reference value: 94.9%); format: functional; settings: MGC-803, 48 h, read-out: Activity
[22] = system: MGC-803; assay: Induction of apoptosis in human MGC803 cells assessed as early apoptotic cells at 30 nM after 48 hrs by Annexin V-FITC/propidium iodide staining based flow cytometry (reference value: 1.9%); format: functional
[23] = system: MGC-803; assay: Induction of apoptosis in human MGC803 cells assessed as late apoptotic cells at 30 nM after 48 hrs by Annexin V-FITC/propidium iodide staining based flow cytometry (reference value: 2.9%); format: functional
[24] = system: MGC-803; assay: Induction of apoptosis in human MGC803 cells assessed as necrotic cells at 30 nM after 48 hrs by Annexin V-FITC/propidium iodide staining based flow cytometry (reference value: 0.3%); format: functional
[25] = system: MGC-803; assay: Induction of apoptosis in human MGC803 cells assessed as viable cells at 60 nM after 48 hrs by Annexin V-FITC/propidium iodide staining based flow cytometry (reference value: 94.9%); format: functional; settings: MGC-803, 48 h, read-out: Activity
[26] = system: MGC-803; assay: Induction of apoptosis in human MGC803 cells assessed as early apoptotic cells at 60 nM after 48 hrs by Annexin V-FITC/propidium iodide staining based flow cytometry (reference value: 1.9%); format: functional
[27] = system: MGC-803; assay: Induction of apoptosis in human MGC803 cells assessed as late apoptotic cells at 60 nM after 48 hrs by Annexin V-FITC/propidium iodide staining based flow cytometry (reference value: 2.9%); format: functional
[28] = system: MGC-803; assay: Induction of apoptosis in human MGC803 cells assessed as necrotic cells at 60 nM after 48 hrs by Annexin V-FITC/propidium iodide staining based flow cytometry (reference value: 0.3%); format: functional
[29] = system: MGC-803; assay: Induction of apoptosis in human MGC803 cells assessed as viable cells at 90 nM after 48 hrs by Annexin V-FITC/propidium iodide staining based flow cytometry (reference value: 94.9%); format: functional; settings: MGC-803, 48 h, read-out: Activity
[30] = system: MGC-803; assay: Induction of apoptosis in human MGC803 cells assessed as early apoptotic cells at 90 nM after 48 hrs by Annexin V-FITC/propidium iodide staining based flow cytometry (reference value: 1.9%); format: functional
[31] = system: MGC-803; assay: Induction of apoptosis in human MGC803 cells assessed as late apoptotic cells at 90 nM after 48 hrs by Annexin V-FITC/propidium iodide staining based flow cytometry (reference value: 2.9%); format: functional
[32] = system: MGC-803; assay: Induction of apoptosis in human MGC803 cells assessed as necrotic cells at 90 nM after 48 hrs by Annexin V-FITC/propidium iodide staining based flow cytometry (reference value: 0.3%); format: functional
[33] = system: MGC-803; assay: Induction of apoptosis in human MGC803 cells assessed as down regulation of Bcl-xl expression after 48 hrs by Western blot analysis; format: functional, cell-based
[34] = system: MGC-803; assay: Induction of apoptosis in human MGC803 cells assessed as down regulation of XIAP expression after 48 hrs by Western blot analysis; format: functional, cell-based
[35] = system: MGC-803; assay: Induction of apoptosis in human MGC803 cells assessed as up regulation of cleaved PARP expression at 30 to 90 nM after 48 hrs by Western blot analysis; format: functional, cell-based
[36] = system: MGC-803; assay: Induction of apoptosis in human MGC803 cells assessed as up regulation of Bax expression at 30 to 90 nM after 48 hrs by Western blot analysis; format: functional, cell-based
[37] = system: MGC-803; assay: Induction of apoptosis in human MGC803 cells assessed as up regulation of DR5 expression at 30 to 90 nM after 48 hrs by Western blot analysis; format: functional, cell-based
[38] = target: Tubulin; assay: Inhibition of tubulin (unknown origin) polymerization measured every minute by spectrophotometric method; format: protein-complex assay, Homo sapiens
[39] = target: Tubulin beta (Homo sapiens) (UniProt P68371+Q9H4B7+Q13509+P04350+Q3ZCM7+P07437+Q13885+Q9BVA1+Q9BUF5+A6NNZ2); assay: Inhibition of EBI binding to beta-tubulin colchicine binding site in human MGC803 cells at 0.4 to 4 uM preincubated for 2 hrs followed by EBI addition and measured after 2 hrs by Western blot analysis; format: cell-based
[40] = target: Tubulin (Homo sapiens) (UniProt P68371+Q9H4B7+P0DPH7+P68366+Q13509+Q71U36+P04350+Q3ZCM7+P07437+P68363+Q9BQE3+Q6PEY2+Q13885+Q9BVA1+Q9BUF5); assay: Induction of microtubule depolymerization in human MGC803 cells at 60 to 90 nM measured after 48 hrs by DAPI staining based laser confocal microscopic analysis; format: cell-based

COc1ccc(CN(C(=O)Cn2cc(COc3cc(=O)oc4ccccc34)nn2)c2cc(OC)c(OC)c(OC)c2)cc1
IC50 [1]: 5.14 µM
IC50 [2]: 3.66 µM
IC50 [3]: 6.25 µM

COc1ccc(CN(C(=O)Cn2cc(CSc3nncs3)nn2)c2cc(OC)c(OC)c(OC)c2)cc1
IC50 [1]: 16.5 µM
IC50 [2]: 5 µM
IC50 [3]: 38.6 µM

COc1cc(N2C(=O)[C@H](c3cccs3)[C@H]2c2cccc(N=[N+]=[N-])c2)cc(OC)c1OC
IC50 [4]: 0.106 µM

COc1ccc(CN(C(=O)Cn2cc(CSC3=NCCS3)nn2)c2cc(OC)c(OC)c(OC)c2)cc1
IC50 [1]: 16 µM
IC50 [2]: 1.61 µM
IC50 [3]: 25 µM

COc1ccc(CN(C(=O)Cn2cc(CN3c4ccccc4Sc4ccc(C(F)(F)F)cc43)nn2)c2cc(OC)c(OC)c(OC)c2)cc1
IC50 [1]: > 80 µM
IC50 [2]: > 80 µM
IC50 [3]: > 80 µM

COc1ccc(CN(C(=O)Cn2cc(COc3ccccc3)nn2)c2cc(OC)c(OC)c(OC)c2)cc1
IC50 [1]: 45.3 µM
IC50 [2]: 12.5 µM
IC50 [3]: 20.5 µM

COc1ccc(CN(C(=O)Cn2cc(COc3ccc4c(C)cc(=O)oc4c3)nn2)c2cc(OC)c(OC)c(OC)c2)cc1
Activity [5]: Dose-dependent effect
IC50 [1]: 0.34 µM
IC50 [2]: 0.13 µM
IC50 [3]: 1.74 µM
inhibition [6]: Dose-dependent effect
viability at 0.03 µM [7]: 85.9%
viability at 0.06 µM [8]: 62.6%
viability at 0.09 µM [9]: 31.8%
viability at 0.12 µM [10]: 16%
Activity [11]: Active
Activity [12]: Active
Activity [13]: Active
Activity [14]: Dose-dependent effect
Activity [15]: Dose-dependent effect
Activity [16]: inactive
Activity [17]: inactive
Activity [18]: Active
Activity [19]: inactive
Activity [20]: inactive
viability at 0.03 µM [21]: 94.5%
Activity [22]: 2.1%
Activity [23]: 3.1%
Activity [24]: 0.2%
viability at 0.06 µM [25]: 92.1%
Activity [26]: 3.1%
Activity [27]: 4.5%
Activity [28]: 0.3%
viability at 0.09 µM [29]: 37.9%
Activity [30]: 25%
Activity [31]: 36.8%
Activity [32]: 0.4%
Activity [33]: Dose-dependent effect
Activity [34]: Dose-dependent effect
Activity [35]: Active
Activity [36]: Active
Activity [37]: Active
IC50 [38]: 2.16 µM
inhibition [39]: Active
Activity [40]: Active

COc1ccc(CN(C(=O)Cn2cc(CSc3nnc(-c4ccccc4)c(-c4ccccc4)n3)nn2)c2cc(OC)c(OC)c(OC)c2)cc1
IC50 [1]: 19.6 µM
IC50 [2]: 1.52 µM
IC50 [3]: 21.8 µM

COc1ccc(CN(C(=O)Cn2cc(CSc3nnnn3C)nn2)c2cc(OC)c(OC)c(OC)c2)cc1
IC50 [1]: 10.9 µM
IC50 [2]: 6.57 µM
IC50 [3]: 28.3 µM

COc1ccc(CN(C(=O)Cn2cc(CNS(=O)(=O)c3ccc(C)cc3)nn2)c2cc(OC)c(OC)c(OC)c2)cc1
IC50 [1]: 12.4 µM
IC50 [2]: 1.58 µM
IC50 [3]: 30.5 µM

C#CCOc1ccc2c(C)cc(=O)oc2c1
IC50 [1]: > 80 µM
IC50 [2]: > 80 µM
IC50 [3]: > 80 µM

COc1ccc(CN(C(=O)Cn2cc(CNS(=O)(=O)c3ccc(Br)cc3)nn2)c2cc(OC)c(OC)c(OC)c2)cc1
IC50 [1]: 12.5 µM
IC50 [2]: 0.43 µM
IC50 [3]: 7.37 µM

COc1ccc(CN(C(=O)Cn2cc(CN3c4ccccc4Sc4ccccc43)nn2)c2cc(OC)c(OC)c(OC)c2)cc1
IC50 [1]: > 80 µM
IC50 [2]: > 80 µM
IC50 [3]: > 80 µM

COc1cc2c(c(OC)c1OC)-c1ccc(OC)c(=O)cc1[C@@H](NC(C)=O)CC2 [COLCHICINE]
IC50 [1]: 0.59 µM
IC50 [2]: 0.27 µM
IC50 [3]: 4.6 µM

COc1ccc(CN(C(=O)Cn2cc(CSc3nc4ccccc4o3)nn2)c2cc(OC)c(OC)c(OC)c2)cc1
IC50 [1]: 5.05 µM
IC50 [2]: 1.85 µM
IC50 [3]: 15.6 µM

COc1ccc(CN(C(=O)Cn2cc(CSc3nc4ccccc4s3)nn2)c2cc(OC)c(OC)c(OC)c2)cc1
IC50 [1]: 28.4 µM
IC50 [2]: 0.48 µM
IC50 [3]: 49.2 µM

COc1ccc(CN(C(=O)Cn2cc(Cn3ccc4ccccc43)nn2)c2cc(OC)c(OC)c(OC)c2)cc1
IC50 [1]: 2.39 µM
IC50 [2]: 42.6 µM
IC50 [3]: 40.1 µM

COc1ccc(CN(C(=O)Cn2cc(COc3ccc4ccc(=O)oc4c3)nn2)c2cc(OC)c(OC)c(OC)c2)cc1
IC50 [1]: 0.86 µM
IC50 [2]: 0.18 µM
IC50 [3]: 1.3 µM

C#CCOc1ccc2ccc(=O)oc2c1
IC50 [1]: > 80 µM
IC50 [2]: > 80 µM
IC50 [3]: > 80 µM
